Data reported in patent US6316409A, “Modified ligands of calcium-dependent binding proteins” (Medical Research Council, priority 1996, dated 2001).
“Also recorded” adds a separate entry of the source. Peptide text beside a SMILES is read from it.

Legend:
bovine brain calmodulin [1] = target: T1, bovine brain calmodulin (Bos taurus, UniProt P62157); assay: stopped-flow measurement of kisom of calmodulin-binding peptides; settings: changes in tryptophan fluorescence
T1 construct: Complexes between calmodulin from bovine brain (1 μM, Sigma); purchased Sigma; host or cells: bovine brain (tissue-derived)
From the text: It has been shown by Torok and Trentham (1994) that smooth muscle MLCK-derived peptides bind to calmodulin with a biphasic kinetic according to the scheme: [drawing 1]
in which P is the peptide, C is calmodulin, P-C is the first complex formed on association of P and C, which then undergoes a conformational isomerisation to P-C*.
(§1) For a kinetic and thermodynamic characterisation of the binding of the peptides of the present invention to bovine brain calmodulin, we have measured the kinetic isomerisation, association, and dissociation constants from which dissociation constants can be derived.
kisom constants have been measured by stopped-flow, detecting changes in tryptophan fluorescence for all the peptides except 3 (SEQ ID NO:4), in which the tryptophan is replaced by alanine.

calmodulin = calmodulin (Bos taurus, UniProt P62157); assay: koff by competition experiments, native PAGE of fluorescein-labelled peptide/calmodulin complexes; format: binding, bovine; set-up: Complexes between calmodulin from bovine brain (1 μM, Sigma); purchased Sigma; host or cells: bovine brain (tissue-derived); settings: for dissociation from calmodulin in competition with excess unlabelled peptide, in words: FIG. 3; for koff: competition with 30-fold excess unlabelled peptide, room temperature, gel buffer, read-out: koff (s^-1)^C
Method: Complexes between calmodulin from bovine brain (1 μM, Sigma) and fluorescein-labelled sMLCK-derived peptides (as described in Table 1 (SEQ ID NOS:2-18)) were prepared in gel buffer (25% gel mix [4 g sucrose+1 mg bromophenol blue in water to give a 10 ml solution]+75% TBSC [50 mM TRIS pH 7.4, […]+50 μM CaCl2)] and run on a 15% native PAGE gel (5 ml 30% acrylamide-bisacrylamide solution+4.5 ml water+0.5 ml 3M Tris, pH 8.8, +1 μl 1M CaCl2 polymerised with 30 μl 25% ammonium persulphate and 9 μl TEMED) using 14.4 g/l glycine+3 g/l Tris-base+0.1 mM CaCl2 as running buffer. Peptides were labelled either with iodoacetamido fluorescein (Molecular Probes) or with iodoacetamido-LC-biotin (Pierce) essentially as previously described by Neri et al., (1995). In these conditions, the fluorescence of the positively-charged labelled peptides can be detected only if they form a stable complex with calmodulin.
In order to obtain an independent experimental confirmation if the BIAcore results, koff constants for peptides 1-17 towards calmodulin were determined by competition experiments. 30 nM fluorescein-labelled peptide/calmodulin complexes in gel buffer were competed at room temperature for different times with 30-fold excess of unlabelled peptide. The resulting mixtures were run on native PAGE gels and imaged by LUANA as described above. The bands in the image obtained were integrated using the LUANA software (Neri et al., 1996) and the corresponding intersities plotted versus time and fitted with a single exponential, from which koff constants were derived. In order to normalise band intensities against pipetting errors, the samples contained 6 nM free fluorescein which ran with the front. The fluorescein bands were integrated and used to normalise the calmodulin/fluorescent peptide complex band intensity. The results of competitions for peptides 1, 2, 3, 6, 9, and 14 are shown in this FIG. 3. Incubation time in minutes is indicated under the lanes.
The volumes of the bands were plotted versus competition time and fitted to a single exponential, from which koff values were derived.
The fastest competitions (peptides 1-4, 9 and 13, SEQ ID NOS:2-5,10, and 14) were over by the time the calmodulin/fluorescent peptide complex entered the gel (approximately 5-10 minutes from pipetting a molar excess of unlabelled peptide; FIG. 3), from which a condition on the off-rate constant koff >1×10^-3 s^-1 was derived. Even for these fast off-rates, complexes can be detected by native polyacrylamide gel electrophoresis because of the well known gel "cage effect" (Fried and Crothers, 1981; Garner and Revzin, 1981).

bovine brain calmodulin [2] = target: T1, bovine brain calmodulin; assay: BIAcore surface plasmon resonance, kon and koff of calmodulin binding to biotinylated peptides; settings: for koff / kon: BIAcore; for koff: read-out: koff (s^-1)^B; for kon: read-out: kon (s^-1 M^-1)^B; for improvement in Kd / affinity for calmodulin over the wild type peptide, in words: Table 1
From the text: as §1
koff =k-1·k-2 /(k+2 +k-2)
Real-time interaction analysis by surface plasmon resonance on a BIAcore instrument (Jonsson et al., 1991) was used to determine kon and koff constants. Biotinylated peptides 1-17 were bound to commercially available streptavidin-coated microsensor chips (Pharmacia Biosensor), in order to achieve a surface capacity of 100-200 surface plasmon resonance units of calmodulin bound. Different concentrations of calmodulin (5, 10, 20, 50 and 100 nM in the order of FIG. 2) were injected and allowed to associate with the peptides. Regeneration of the surface was achieved by injection of 5 μl TBS+[…] which dissociates the calmodulin-peptide complex.

| SMILES | kisom. (s^-1)^A (bovine brain calmodulin [1]) | dissociation from calmodulin in competition with excess unlabelled peptide, in words (calmodulin) | koff (calmodulin) [s⁻¹] | koff (bovine brain calmodulin [2]) [s⁻¹] | kon (bovine brain calmodulin [2]) [M⁻¹ s⁻¹] | improvement of koff with respect to wild type, in words (bovine brain calmodulin [2]) | improvement in Kd / affinity for calmodulin over the wild type peptide, in words (bovine brain calmodulin [2]) |
| --- | --- | --- | --- | --- | --- | --- | --- |
| CC[C@H](C)[C@H](NC(=O)[C@H](Cc1ccccc1)NC(=O)[C@H](CC(N)=O)NC(=O)[C@H](CCCCN)NC(=O)[C@H](CCCCN)NC(=O)[C@H](Cc1c[nH]c2ccccc12)NC(=O)[C@H](CCCNC(=N)N)NC(=O)[C@H](C)NC(=O)[C@H](C)NC(=O)[C@H](C)NC(=O)[C@@H](N)CS)C(=O)N[C@@H](C)C(=O)N[C@@H](C)C(=O)N[C@@H](CO)C(=O)N[C@@H](C)C(=O)N[C@@H](C)C(=O)N[C@@H](CC(N)=O)C(=O)N[C@@H](CCCNC(=N)N)C(=O)N[C@@H](Cc1ccccc1)C(=O)N[C@@H](CCCCN)C(=O)N[C@@H](CCCCN)C(=O)N[C@H](C(=O)N[C@@H](CO)C(N)=O)[C@@H](C)CC [Peptide 9] (H-CAAARWKKNFIAASAANRFKKIS-NH2; N-terminus assumed) | 1.5 (10.3) × 10^-1 s^-1 | dissociated from calmodulin in a few minutes | ≥ 0.001 | 0.0012 | 860000 | – | – |
| CC[C@H](C)[C@H](NC(=O)[C@H](Cc1ccccc1)NC(=O)[C@H](CC(N)=O)NC(=O)[C@H](CCCCN)NC(=O)[C@H](CCCCN)NC(=O)[C@H](Cc1c[nH]c2ccccc12)NC(=O)[C@H](CCCNC(=N)N)NC(=O)[C@H](C)NC(=O)[C@H](C)NC(=O)[C@H](C)NC(=O)[C@@H](N)CS)C(=O)N[C@@H](C)C(=O)N[C@H](C(=O)N[C@@H](CO)C(=O)N[C@@H](C)C(=O)N[C@@H](C)C(=O)N[C@@H](C)C(=O)N[C@@H](CCCNC(=N)N)C(=O)N[C@@H](Cc1ccccc1)C(=O)N[C@@H](CCCCN)C(=O)N[C@@H](CCCCN)C(=O)N[C@H](C(=O)N[C@@H](CO)C(N)=O)[C@@H](C)CC)C(C)C [Peptide 11] (H-CAAARWKKNFIAVSAAARFKKIS-NH2; N-terminus assumed) | 2.8 (10.6) × 10^-2 s^-1 | – | 0.00049 | 0.00035 | 940000 | – | – |
| CC[C@H](C)[C@H](NC(=O)[C@H](Cc1ccccc1)NC(=O)[C@H](CC(N)=O)NC(=O)[C@H](CCCCN)NC(=O)[C@H](C)NC(=O)[C@H](Cc1c[nH]c2ccccc12)NC(=O)[C@H](CCCNC(=N)N)NC(=O)[C@H](C)NC(=O)[C@H](C)NC(=O)[C@H](C)NC(=O)[C@@H](N)CS)C(=O)N[C@@H](C)C(=O)N[C@H](C(=O)N[C@@H](CO)C(=O)N[C@@H](C)C(=O)N[C@@H](C)C(=O)N[C@@H](CC(N)=O)C(=O)N[C@@H](CCCNC(=N)N)C(=O)N[C@@H](Cc1ccccc1)C(=O)N[C@@H](CCCCN)C(=O)N[C@@H](CCCCN)C(=O)N[C@H](C(=O)N[C@@H](CO)C(N)=O)[C@@H](C)CC)C(C)C [Peptide 4] (H-CAAARWAKNFIAVSAANRFKKIS-NH2; N-terminus assumed) | 2.4 (10.6) × 10^-1 s^-1 | – | ≥ 0.001 | 0.003 | 1.3e+06 | – | – |
| CC[C@H](C)[C@H](NC(=O)[C@H](C)NC(=O)[C@H](CCCCN)NC(=O)[C@H](Cc1ccccc1)NC(=O)[C@H](CCCNC(=N)N)NC(=O)[C@H](CC(N)=O)NC(=O)[C@H](C)NC(=O)[C@H](C)NC(=O)[C@H](CO)NC(=O)[C@@H](NC(=O)[C@H](C)NC(=O)[C@@H](NC(=O)[C@H](Cc1ccccc1)NC(=O)[C@H](CC(N)=O)NC(=O)[C@H](CCCCN)NC(=O)[C@H](CCCCN)NC(=O)[C@H](Cc1c[nH]c2ccccc12)NC(=O)[C@H](CCCNC(=N)N)NC(=O)[C@H](C)NC(=O)[C@H](C)NC(=O)[C@H](C)NC(=O)[C@@H](N)CS)[C@@H](C)CC)C(C)C)C(=O)N[C@@H](CO)C(N)=O [Peptide 15] (H-CAAARWKKNFIAVSAANRFKAIS-NH2; N-terminus assumed) | 1.2 (10.3) × 10^-1 s^-1 | – | 0.00021 | 0.00022 | 1.1e+06 | – | – |
| CC[C@H](C)[C@H](NC(=O)[C@H](Cc1ccccc1)NC(=O)[C@H](CC(N)=O)NC(=O)[C@H](C)NC(=O)[C@H](CCCCN)NC(=O)[C@H](Cc1c[nH]c2ccccc12)NC(=O)[C@H](CCCNC(=N)N)NC(=O)[C@H](C)NC(=O)[C@H](C)NC(=O)[C@H](C)NC(=O)[C@@H](N)CS)C(=O)N[C@@H](C)C(=O)N[C@H](C(=O)N[C@@H](CO)C(=O)N[C@@H](C)C(=O)N[C@@H](C)C(=O)N[C@@H](CC(N)=O)C(=O)N[C@@H](CCCNC(=N)N)C(=O)N[C@@H](Cc1ccccc1)C(=O)N[C@@H](CCCCN)C(=O)N[C@@H](CCCCN)C(=O)N[C@H](C(=O)N[C@@H](CO)C(N)=O)[C@@H](C)CC)C(C)C [Peptide 5] (H-CAAARWKANFIAVSAANRFKKIS-NH2; N-terminus assumed) | 7.4 (11.0) × 10^-2 s^-1 | – | 0.00021 | 0.00029 | 1.1e+06 | – | – |
| CC[C@H](C)[C@H](NC(=O)[C@H](Cc1ccccc1)NC(=O)[C@H](C)NC(=O)[C@H](CCCCN)NC(=O)[C@H](CCCCN)NC(=O)[C@H](Cc1c[nH]c2ccccc12)NC(=O)[C@H](CCCNC(=N)N)NC(=O)[C@H](C)NC(=O)[C@H](C)NC(=O)[C@H](C)NC(=O)[C@@H](N)CS)C(=O)N[C@@H](C)C(=O)N[C@H](C(=O)N[C@@H](CO)C(=O)N[C@@H](C)C(=O)N[C@@H](C)C(=O)N[C@@H](CC(N)=O)C(=O)N[C@@H](CCCNC(=N)N)C(=O)N[C@@H](Cc1ccccc1)C(=O)N[C@@H](CCCCN)C(=O)N[C@@H](CCCCN)C(=O)N[C@H](C(=O)N[C@@H](CO)C(N)=O)[C@@H](C)CC)C(C)C [Peptide 6] (H-CAAARWKKAFIAVSAANRFKKIS-NH2; N-terminus assumed) | 1.8 (10.9) × 10^-1 s^-1 | hardly competed by an excess of unlabelled peptide after 1000 minutes | 2.2e-06 | ≥ 0.0001 | 980000 | largest improvements | greatest improvement in affinity; also recorded: greatest improvement in Kd |
| CC[C@H](C)[C@H](NC(=O)[C@H](Cc1ccccc1)NC(=O)[C@H](CC(N)=O)NC(=O)[C@H](CCCCN)NC(=O)[C@H](CCCCN)NC(=O)[C@H](Cc1c[nH]c2ccccc12)NC(=O)[C@H](CCCNC(=N)N)NC(=O)[C@H](C)NC(=O)[C@H](C)NC(=O)[C@H](C)NC(=O)[C@@H](N)CS)C(=O)N[C@@H](C)C(=O)N[C@H](C(=O)N[C@@H](C)C(=O)N[C@@H](C)C(=O)N[C@@H](C)C(=O)N[C@@H](CC(N)=O)C(=O)N[C@@H](CCCNC(=N)N)C(=O)N[C@@H](Cc1ccccc1)C(=O)N[C@@H](CCCCN)C(=O)N[C@@H](CCCCN)C(=O)N[C@H](C(=O)N[C@@H](CO)C(N)=O)[C@@H](C)CC)C(C)C [Peptide 10] (H-CAAARWKKNFIAVAAANRFKKIS-NH2; N-terminus assumed) | 2.1 (11.0) × 10^-1 s^-1 | – | 7.9e-05 | 0.0001 | 1.1e+06 | largest improvements | greatest improvement in affinity; also recorded: greatest improvement in Kd |
